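A five-concentration, 48-hour dose response in 96-well plates underlies each endpoint, interpolated linearly between surrounding concentrations. GI50 = concentration required for 50% inhibition of growth.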 Activity calls are given as the source filed them. No stated cut-off is given here; in the data, active = GI50 up to about 1.1 µM and inactive = higher.

Test systems include A498; A549; BT-549; DU-145; EKVX; HCC 2998; K562; MDA-MB-435; NCI-H23; NCI/ADR-RES; OVCAR-5; RXF 393; SF-268; SF-295; SK-MEL-5; SK-OV-3; SNB-19; TK-10; UACC-62; UO-31.
What all share (experiment): NCI-60 cell line screen, 48 h

For `Cc1cc(=O)oc2c(C3=NN(C=O)C(c4ccccc4)C3)c(O)ccc12` (stereo not given), the GI50 in the experiment on A498 was > 56.2 µM (inactive); in the experiment with A549 it was 20.8 µM (inactive); in the experiment with BT-549 it was 65.6 µM (inactive); in the experiment with DU-145 it was > 100 µM (inactive); with EKVX it was 72.6 µM (inactive); in the experiment on HCC 2998 it was > 87.7 µM (inactive). The GI50 in the experiment with K562 is > 91 µM (inactive); with MDA-MB-435, > 65.9 µM (inactive); in the experiment on NCI-H23, 85.9 µM (inactive); in the experiment with NCI/ADR-RES it was 61.9 µM (inactive); in the experiment with OVCAR-5 it was > 87.7 µM (inactive); in the experiment with RXF 393 it was 38.2 µM (inactive). For the same molecule, the GI50 with SF-268 was 31.6 µM (inactive); in the experiment on SF-295, 10 µM (inactive); in the experiment with SK-MEL-5, 56.2 µM (inactive); in the experiment with SK-OV-3, 20.2 µM (inactive); with SNB-19, 47.4 µM (inactive); in the experiment on TK-10 it was 57.4 µM (inactive). In addition, the GI50 in the experiment with UACC-62 was 82.2 µM (inactive); with UO-31, 64.3 µM (inactive).

With `COc1ccc2c(c1)CCc1c(-c3noc4c3CCc3cc(OC)ccc3-4)noc1-2`, the GI50 in the experiment on A498 was > 100 µM (inactive); with A549, > 100 µM (inactive); in the experiment on BT-549, > 100 µM (inactive); with DU-145, > 100 µM (inactive); in the experiment on EKVX, 53.1 µM (inactive); with HCC 2998, 40.4 µM (inactive). The GI50 with K562, in the experiment with MDA-MB-435, in the experiment with NCI-H23, in the experiment with NCI/ADR-RES, with OVCAR-5 and in the experiment on RXF 393 was > 100 µM (inactive) in each case. For the same molecule, the GI50 in the experiment with SF-268, in the experiment with SF-295, in the experiment on SK-MEL-5, with SK-OV-3, with SNB-19 and in the experiment with TK-10 was > 100 µM (inactive) in each case. The GI50 in the experiment with UACC-62 and in the experiment with UO-31 was > 100 µM (inactive) in each case.

Take `C/C(=N\Nc1nc2cc(C(F)(F)F)ccc2s1)c1ccccn1`: the GI50 with A498 is 1.52 µM (inactive); in the experiment on A549 it was 0.593 µM (active); in the experiment with BT-549, 3.35 µM (inactive); in the experiment on DU-145, 0.401 µM (active); in the experiment on EKVX, 0.0431 µM (active); in the experiment on HCC 2998 it was 2.6 µM (inactive). In addition, the GI50 was 0.266 µM (active) in the experiment on K562; 0.469 µM (active) in the experiment on MDA-MB-435; 0.452 µM (active) with NCI-H23; 0.291 µM (active) in the experiment with NCI/ADR-RES; 2.47 µM (inactive) in the experiment with OVCAR-5; 1.36 µM (inactive) with RXF 393. The GI50 was 0.333 µM (active) with SF-268; 0.408 µM (active) in the experiment on SF-295; 0.338 µM (active) in the experiment with SK-MEL-5; 0.245 µM (active) in the experiment with SK-OV-3; 0.968 µM (active) in the experiment with SNB-19; 2.52 µM (inactive) in the experiment with TK-10. In addition, the GI50 in the experiment on UACC-62 was 0.303 µM (active); in the experiment with UO-31 it was 0.0316 µM (active).

On to `O=c1[nH]/c(=C/c2ccc3c(c2)OCO3)c(=O)[nH]/c1=C/c1ccc2c(c1)OCO2`, for which the GI50 with A498, with A549, with BT-549, with DU-145, in the experiment on EKVX and in the experiment with HCC 2998 was > 10 µM (inactive) in each case. For the same molecule, the GI50 in the experiment on K562, in the experiment on MDA-MB-435, in the experiment with NCI-H23, in the experiment on NCI/ADR-RES, in the experiment with OVCAR-5 and with RXF 393 was > 10 µM (inactive) throughout. In addition, the GI50 in the experiment on SF-268, with SF-295, in the experiment with SK-MEL-5, with SK-OV-3, in the experiment on SNB-19 and in the experiment on TK-10 was > 10 µM (inactive) in each case. The GI50 in the experiment on UACC-62 and in the experiment with UO-31 was > 10 µM (inactive) in each case.

Source of the values: ChEMBL document CHEMBL1201862, “PubChem BioAssay data set” (2004).
